“Also recorded” adds a separate entry of the source.
Key:
[1] = target: T1, latent human 20S proteasome (Homo sapiens, UniProt P25787+P60900); assay: Chymotrypsin-like (ChT-L) activity of purified latent human 20S proteasome, Suc-LLVY-AMC substrate; type: biochemical; conditions: for activation of ChT-L activity of 20S proteasome (in words): in vitro, latent human 20S
T1 construct: purified from erythrocytes; purchased Boston Biochem, Inc. or Enzo Life Sciences, Inc; host or cells: human erythrocytes
Method: Determination of Proteasome Activity. Human housekeeping core (20S) proteasome purified from erythrocytes was purchased from Boston Biochem, Inc. (Cambridge, Mass.) or from Enzo Life Sciences, Inc. (Farmingdale, N.Y.). […] The stock proteasome was diluted to 0.2 mg/mL working solution in “dilution buffer” (50 mM Tris/HCl, pH 8, 20% glycerol). The following model peptide substrates, releasing fluorescent 7-amino-4-methylcoumarin (AMC) reporter group after cleavage, were used: succinyl-LeuLeuValTyr-AMC (SEQ ID NO: 14) (for the ChT-L peptidase; SucLLVY-AMC; Bachem Bioscience Inc., Philadelphia, Pa.), butoxycarbonyl-LeuArgArg-AMC (T-L; Bachem Bioscience Inc., Philadelphia, Pa.) and carbobenzoxy-LeuLeuGlu-AMC (PGPH; Enzo Life Sciences Inc., Farmingdale, N.Y.). The substrates were used at concentration of 50 μM (ChT-L) or 100 μM (T-L, PGPH). Free AMC (Sigma-Aldrich, St. Louis, Mo.) was used as the standard. […] The TAT peptides, Rpt peptides (except Rpt6) and the peptide substrates were dissolved in anhydrous dimethylsulfoxide (DMSO; Sigma-Aldrich, St. Louis, Mo.) and such stock solutions were stored at −20° C. The total concentration of DMSO in final reaction mixtures never exceeded 3% (vol/vol). The Trp (tryptophan)-containing Rpt6 peptide was dissolved in ultrapure water and stored at −20° C., protected from light. The reaction was carried out in 96-well plates, in 100 μL of reaction mixture that consisted of 45 mM Tris/HCl, pH 8, 100 mM KCl, 1 mM EDTA (reaction buffer) and a fluorogenic peptide substrate, to which 200 ng (nearly […]) of proteasome were added. […] The proteasome was preincubated with a substrate for 10 min at room temperature, then 1 μL of DMSO or a desired concentration of a TAT peptide in 1 μL of DMSO were added. After mixing, the plate was transferred to a Fluoroskan Ascent plate reader (Thermo Fisher Scientific Inc., Waltham, Mass.) for 1 h (37° C.), with fluorescence readouts once per minute. To test the competition with Rpt derived peptides, the Rpt peptide (1 μM) was added before the TAT peptide to the reaction mixture. The reaction rates were calculated from a linear segment of kinetic curves constructed from measurements in 1-min intervals. Reaction rates were calculated using a linear fit performed with the Slope Analyser and Enzyme Kinetics applications launched within Origin Pro 2019 (OriginLab Corporation, Northampton, Mass.). […] The data are presented as mean±SD from at least three independent experiments.
Statistical Analysis. Experiments were performed at least in three independent replicates. The results are presented as a mean±SD. A two-tailed t-test was applied to compare the means. The comparisons were allowing for unequal variances with a Welch correction. Abundance of proteasome conformers was compared with the chi squared test and two-sample proportion test. A significance level was set at 0.05. Statistical analysis was performed using statistical procedures offered by OriginPro 2019 (OriginLabs, Northampton, Mass.). Reaction rates were calculated from a smoothed linear segment of kinetic traces using OriginPro 2019. Response curves (activity vs. compound concentration) were fitted with a nonlinear fitting application of OriginPro 2019. The AC50 and maximum activation fold was calculated based on the equations implemented to fit the response curves.

[2] = target: T2, purified human 26S proteasome (Homo sapiens, UniProt P25787+P60900); assay: In-gel overlay activity on non-denaturing gel, 26S proteasome; type: biochemical; conditions: 1 microM, 15 min, 100 microM Suc-LLVY-MCA
T2 construct: purchased Boston Biochemicals (Boston Biochem)
Method: Purified human 20S and 26S proteasomes were separated on non-denaturing polyacrylamide gel. The gel was overlayed with reaction buffer containing 100 microM fluorogenic peptide substrate Suc-LLVY-MCA (SEQ ID NO: 14) and 1% of vehicle solvent (DMSO) or the substrate and 1 microM Tat1 8,9 TOD. The gel was photographed after 15 min of incubation and then stained for the total protein content with Coomassie Brilliant Blue, and photographed. […] The protein content was the same for the control and Tat-overlayed sets. The activities of both 26S and 20S are enhanced by Tat1 8,9 TOD. The enhanced activity of 26S was not the result of Tat1 8,9 TOD—induced breaking of the 26S assembly into its components (19S and 20S) and activation of the released 20S catalytic core that still remains in the gel together with the whole 26S assembly. […] Traces of the 20S in both control 26S preparation and preparation pre-incubated with Tat1 8,9 TOD.

[3] = tested on: elav-GS-Gal4>UAS-APP, UAS-Bace1 flies; assay: Spontaneous activity in fly AD model; type: in vivo, Drosophila melanogaster; conditions: 1 μM in food
Method: Spontaneous activity and circadian rhythm. Spontaneous activity was monitored using a Trikinetic activity monitor, in which vials containing 20-25 flies were secured and activity recorded in a humidified 24° C. incubator with 12:12-hour light:dark cycles as described herein. Flies were allowed to acclimate for 8 hours prior to data collection. Activity was averaged for each twelve-hour cycle and normalized per fly.

hAPP(J20) mice = assay: Novel object recognition assay in hAPP(J20) mice; type: in vivo, mouse; conditions: 14 days IP injection, 1 mg/kg, listed as Tat-TOD
Method: Novel object recognition test. To measure recognition of a previously encountered object, animals are placed in an opacified rat cage with bedding for 10 min. The following (training) day, mice are returned to the chamber, which now contains two identical objects, and allowed to explore the arena for 5 minutes. Percent of time exploring each object is recorded using TopScan. During testing (4 hours after training) one of the objects in the box is replaced with a new object and the side of the replaced object randomized amongst animals. Mice are given 5 mins to explore the two objects, and percent time exploring each object is recorded using TopScan. A discrimination ratio calculated as (tnovel−tfamiliar)/(tnovel+tfamiliar) is used as a measure of retention of the priorly encountered object (positive and negative discrimination ratio values indicate a preference for exploration of the novel and familiar objects, respectively).
The compounds were tested as follows: in neuroblast MC65 cell culture model with overexpressed C99 fragment of amyloid precursor protein (APP) upon tetracycline withdrawal or with external APP added; and in fruit fly (D. melanogaster) model of AD with overexpressed APP and BACE1. The compounds (1 μM) were mixed with food. Flies were trained to recognize “positive” and “negative” odors (olfaction aversion). […]

Row | SMILES | AC50 ([1]; 20S proteasome AC50, Table 1, ChT-L activity, Suc-LLVY-MCA, purified human housekeeping 20S) [nM] | AC50 ([1]; AC50 [nM] ± SE, Table 3, purified 20S proteasome in Tris/HCl buffer pH 8, ChT-L model substrate) [nM] | activation of ChT-L activity of 20S proteasome (in words) [1] | 26S activity in gel overlay [2] | spontaneous activity [3] | learning and memory, novel object recognition (hAPP(J20) mice) | activation of ChT-L activity of 20S proteasome (in words) ([1]; listed as Tat1-Den) | activation of ChT-L activity of 20S proteasome (in words) ([1]; listed as Tat-Den)
1 | N=C(N)NCCCC(NC(=O)CN)C(=O)NC(CCCCN)C(=O)NC(CCCCN)C(=O)NC(CCCNC(=N)N)C(=O)NC(CCCNC(=N)N)C(=O)NC(CCC(N)=O)C(=O)N1Cc2ccccc2C[C@H]1C(=O)N1C(C(=O)NC(CCCNC(N)N)C(=O)N2CCCC2C(=O)NC(CO)C(=O)O)CC2CCCCC21 (stereo partly shown) [(5), GRKKRRQ-TOD-RPS] | 221 | 220 ± 89 | strongly enhance | enhanced | increased spontaneous activity | efficiently explore their surroundings to recognize novel objects; also recorded: significantly enhances learning and memory | – | –
2 | NCCCCC(N)C(=O)NC(CCCCN)C(=O)NC(CCCCN)C(=O)Nc1cc(NC(=O)C(CCCCN)NC(=O)C(CCCCN)NC(=O)C(N)CCCCN)cc(C(=O)NC(CCCCN)C(=O)NC(CCCCN)C(=O)NC(CCCCN)C(=O)O)c1 (stereo not shown) [(8)] | – | – | one of the highest activation folds for the 20S core and one of the lowest AC50; also recorded: highest fold of activation potential and a low AC50 | – | increased spontaneous activity | – | one of the best proteasome activators | strongly enhance

From patent publication US20220332758A1, “PEPTIDE-BASED COMPOSITIONS AND METHODS FOR TREATING ALZHEIMER'S DISEASE” (Board of Regents, The Universityof Texas System, priority 2019, published 2022)
